Test results published in patent US9072766B2, “Methods of treating obesity by inhibiting nicotinamide N-methyl transferase (NNMT)” (Beth Israel Deaconess Medical Center, Inc., priority 2010, dated 2015).

Tests used:
Type in all cases: cell-based
[1] = test system: 3T3-L1 adipocytes; assay: Lipolysis in 3T3-L1 adipocytes (glycerol release); conditions: cultured 3T3-L1 adipocytes (FIG. 13A)
Method: 3T3-L1 were grown in Dulbecco's Modified Eagle's Medium (Gib-co/Invitrogen, Carlsbad, Calif., USA) with 4.5 g/l glucose and 10% fetal bovine serum. Differentiation was induced in two-day-postconfluent cells by supplementing the media with 1 μM insulin, 100 nM dexamethasone, and 500 μM isobutylmethylxanthine for 48 hours, followed by media supplemented with 1 μM insulin for another 48 hours, then normal media until differentiation day 10.
Fully differentiated 3T3-L1 adipocytes (day 10) in 48-well plates were washed, and 100 μl of KRH buffer with 3% BSA and 4 g/l D-glucose with or without 100 nM isoproterenol was added to each well. After 1 hour at 37° C./5% CO2 a 50 μl aliquot from each well was transferred to a 96-well plate; 50 μl of lipolysis assay buffer (Cayman Chemical) were added, and the plate was incubated at room temperature, protected from light, for 30 min. Absorption was measured at 540 nm. A standard curve was included on each plate to allow calculation of the glycerol concentration in the supernatants.

[2] = test system: 3T3-L1 adipocytes; assay: Glucose uptake in 3T3-L1 adipocytes
Method: 3T3-L1 were grown in Dulbecco's Modified Eagle's Medium (Gib-co/Invitrogen, Carlsbad, Calif., USA) with 4.5 g/l glucose and 10% fetal bovine serum. Differentiation was induced in two-day-postconfluent cells by supplementing the media with 1 μM insulin, 100 nM dexamethasone, and 500 μM isobutylmethylxanthine for 48 hours, followed by media supplemented with 1 μM insulin for another 48 hours, then normal media until differentiation day 10. Fully differentiated 3T3-L1 adipocytes (day 10) in 48-well plates were serum-starved for 1 hour before incubation with Krebs-Ringer-HEPES (KRH) buffer with or without 10 nM insulin for 30 minutes, followed by addition of 1 mM, 100 nCi [3H]-2-deoxyglucose for 10 minutes. Uptake was stopped by lysing the cells with 0.1% sodium dodecyl sulfate (SDS). Lysates were transferred to liquid scintillation cocktail (Fisher […] 50% Plus) and counted in a Beckman LS counter.

[3] = test system: 3T3-L1 adipocytes; assay: Oxygen consumption of 3T3-L1 adipocytes
Method: 3T3-L1 were grown in Dulbecco's Modified Eagle's Medium (Gib-co/Invitrogen, Carlsbad, Calif., USA) with 4.5 g/l glucose and 10% fetal bovine serum. Differentiation was induced in two-day-postconfluent cells by supplementing the media with 1 μM insulin, 100 nM dexamethasone, and 500 μM isobutylmethylxanthine for 48 hours, followed by media supplemented with 1 μM insulin for another 48 hours, then normal media until differentiation day 10. Oxygen consumption was measured with a Rank Brothers oxygen electrode (Rank Brothers Ltd., Cambridge, UK). Cultured cells were trypsinized, counted in a hemocytometer, spun down, and resuspended in respiration buffer (PBS, 2% BSA, 4.5 g/l glucose, 120 mg/l sodium pyruvate) to 1E6/ml. Partial oxygen pressure was recorded using a Rank Brothers digital model 10 and a PowerLab 4/30 data acquisition system (ADInstruments, Colorado Springs, Colo.).

CNC(=O)c1cccnc1 [N-methylnicotinamide]
lipolysis (glycerol released into the culture supernatant) [1]: increased | insulin-dependent glucose uptake ([2]; 3T3-L1 adipocytes (FIG. 13B)): stimulated | basal glucose uptake ([2]; no insulin (FIG. 15B)): stimulated | submaximally insulin-induced glucose uptake ([2]; submax insulin (FIG. 15C)): stimulated | glucose uptake, co-administration with DFMO relative to DFMO alone ([2]; submax insulin stimulation (FIG. 15C)): increase | oxygen consumption in differentiated 3T3-L1 adipocytes ([3]; FIG. 12C): increased | oxygen consumption (FIG. 15A) ([3]; text: cultured hepatoma cells, legend: 3T3-L1 adipocytes): stimulated
